{"source": "patent US20110200556A1", "about": "“CHEMOPREVENTION OF HEAD AND NECK SQUAMOUS CELL CARCINOMAS” (THE UNITED STATES OF AMERICA, AS REPRESENTED BY TH E …, priority 2008, published 2011)", "system": "tongue and oral mucosa", "experiment": "Oral chemical carcinogenesis by 4NQO in the drinking water", "format": "in vivo, C57B1/6 mice", "conditions": "4NQO 50 μg/ml in drinking water, week 12", "procedure": "Water was changed weekly.\nMethods: Animal studies were carried out according to NIH-approved protocols, in compliance with the Guide for the Care and Use of Laboratory Animals. Female C57B1/6 mice (Harlan Sprague-Dawley, National Cancer Institute at Frederick, Md., USA) 4-6 weeks old and weighing 18 to 20 g, were housed in appropriate sterile filter-capped cages, and fed and given water ad libitum. […] All animals underwent a bi-weekly full oral cavity examination under anesthesia (2-5% Isoflurane, Baxter, Deerfield, Ill., mixed with oxygen), and any observed pathological changes were documented. Animals were euthanized either on week 16 or week 22 for tissue retrieval. Complete autopsies were performed, and tissues were immediately collected and fixed in buffered zinc-formalin (Z-fix, Anatech, Mich.) at room temperature for 12 h. The tissues were then transferred to alcohol 70%, processed for paraffin embedding for histopathological diagnosis and further studies. […] Animals were monitored daily for general behavioral abnormalities, signs of toxicity, illness or discomfort. Animals were euthanized on week 22, and tissue retrieval was performed as described above.\nWater was replaced weekly, and mice were monitored prior to each water change. […] All animals underwent a bi-weekly full oral cavity examination, and any pathological changes were documented. […]", "data": [{"smiles": "O=[N+]([O-])c1cc[n+]([O-])c2ccccc12", "note": "[4NQO, 4-nitroquinoline-1 oxide]", "values": [{"measurement": "mice that developed tumors in the tongue and other areas of the oral mucosa", "result": "around 50%"}]}]}
